Test results reported in PMC12277872, “Design, Synthesis, In Vitro, and In Silico Studies of 5‐(Diethylamino)‐2‐Formylphenyl Naphthalene‐2‐Sulfonate Based Thiosemicarbazones as Potent Anti‐Alzheimer Agents” (Archiv Der Pharmazie, 2025).

How the values were obtained:
[1] = target: T1, AChE from Electrophorus electricus (electric eel) (Electrophorus electricus, UniProt O42275); experiment: biochemical; conditions: for IC50: AChI substrate, DTNB, 412 nm, Tris/HCl pH 8.0; for Ki: read-out: K i (nM) AChE
T1 construct: purchased Sigma Aldrich C3389
T1 sequence (O42275 24-633): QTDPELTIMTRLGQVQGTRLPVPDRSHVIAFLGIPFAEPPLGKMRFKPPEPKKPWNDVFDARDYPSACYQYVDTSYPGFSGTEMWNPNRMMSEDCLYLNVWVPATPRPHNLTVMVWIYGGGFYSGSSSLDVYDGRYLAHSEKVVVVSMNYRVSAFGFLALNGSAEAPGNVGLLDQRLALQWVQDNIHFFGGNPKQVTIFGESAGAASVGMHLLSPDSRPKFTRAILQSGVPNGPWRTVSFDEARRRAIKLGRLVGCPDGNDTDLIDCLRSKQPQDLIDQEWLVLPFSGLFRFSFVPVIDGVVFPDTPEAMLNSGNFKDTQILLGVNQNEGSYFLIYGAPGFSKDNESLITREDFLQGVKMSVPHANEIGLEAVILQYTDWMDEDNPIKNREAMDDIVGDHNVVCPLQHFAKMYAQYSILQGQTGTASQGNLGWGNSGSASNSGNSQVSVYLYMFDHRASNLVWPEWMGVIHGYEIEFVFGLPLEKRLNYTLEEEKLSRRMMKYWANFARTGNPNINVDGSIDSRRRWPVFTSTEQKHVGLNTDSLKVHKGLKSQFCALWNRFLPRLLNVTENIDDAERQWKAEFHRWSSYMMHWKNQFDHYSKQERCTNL
Method: Both […] (AChI) and butyrylcholine iodide (BChI) were used as substrates for the enzymatic hydrolysis reactions, with 5,5′‐dithiobis(2‐nitrobenzoic acid) (DTNB) serving as a common reagent for detecting the activities of AChE and BChE. The assay was conducted: 1 mL of 1.0 M Tris/HCl buffer (pH 8.0) was mixed with 10 μL of the sample solution in deionized water. To this mixture, 50 μL of AChE or BChE enzyme solution was added, and the reaction was incubated at room temperature for 10 min. After incubation, 50 μL of DTNB (0.5 mM) was introduced, followed by the addition of 50 μL of either AChI or BChI (10 mM), initiating the enzymatic reaction. […] This color change is due to the reaction of DTNB with thiocholine released during the hydrolysis of AChI or BChI. For every inhibitor that was utilized, IC50 and K i values were determined. In this study, C7512‐ BChE from equine serum and C3389‐ AChE from Electrophorus electricus (electric eel) were purchased from Sigma Aldrich.

BChE from equine serum = target: T2, BChE from equine serum (Equus caballus, UniProt P81908); experiment: biochemical; conditions: for IC50: BChI substrate, DTNB, 412 nm, Tris/HCl pH 8.0; for Ki: read-out: K i (nM) BChE
T2 construct: C7512‐ BChE from equine serum; purchased Sigma Aldrich C7512; host or cells: equine serum
T2 sequence (P81908 whole entry): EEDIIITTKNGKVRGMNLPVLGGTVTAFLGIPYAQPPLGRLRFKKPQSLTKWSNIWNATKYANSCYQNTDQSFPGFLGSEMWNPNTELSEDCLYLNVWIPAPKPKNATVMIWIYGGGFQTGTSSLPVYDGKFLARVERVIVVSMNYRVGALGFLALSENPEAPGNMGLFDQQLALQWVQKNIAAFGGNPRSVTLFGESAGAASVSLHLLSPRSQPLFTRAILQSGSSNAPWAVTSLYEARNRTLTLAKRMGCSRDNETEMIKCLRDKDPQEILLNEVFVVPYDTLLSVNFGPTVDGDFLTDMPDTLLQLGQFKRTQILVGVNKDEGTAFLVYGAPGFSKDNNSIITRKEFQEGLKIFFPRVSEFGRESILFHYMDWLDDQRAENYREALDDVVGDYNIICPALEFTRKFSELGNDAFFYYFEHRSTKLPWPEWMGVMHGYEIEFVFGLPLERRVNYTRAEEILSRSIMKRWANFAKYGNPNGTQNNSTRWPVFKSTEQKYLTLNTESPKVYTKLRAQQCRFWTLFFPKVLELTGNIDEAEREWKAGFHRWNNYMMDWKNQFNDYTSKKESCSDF
Method: Both […] (AChI) and butyrylcholine iodide (BChI) were used as substrates for the enzymatic hydrolysis reactions, with 5,5′‐dithiobis(2‐nitrobenzoic acid) (DTNB) serving as a common reagent for detecting the activities of AChE and BChE. The assay was conducted: 1 mL of 1.0 M Tris/HCl buffer (pH 8.0) was mixed with 10 μL of the sample solution in deionized water. To this mixture, 50 μL of AChE or BChE enzyme solution was added, and the reaction was incubated at room temperature for 10 min. After incubation, 50 μL of DTNB (0.5 mM) was introduced, followed by the addition of 50 μL of either AChI or BChI (10 mM), initiating the enzymatic reaction. The hydrolysis of the substrates was monitored spectrophotometrically by measuring the absorbance at 412 nm, corresponding to the formation of the yellow‐colored 5‐thio‐2‐nitrobenzoate anion. This color change is due to the reaction of DTNB with thiocholine released during the hydrolysis of AChI or BChI. For every inhibitor that was utilized, IC50 and K i values were determined. In this study, C7512‐ BChE from equine serum and C3389‐ AChE from Electrophorus electricus (electric eel) were purchased from Sigma Aldrich.

hMAO‐A = target: T3, hMAO‐A (Homo sapiens, UniProt P21397); experiment: In vitro fluorometric MAO-A inhibition assay (tyramine substrate, horseradish peroxidase coupling); format: biochemical
T3 construct: purchased Sigma Aldrich M7316
T3 sequence (P21397 1-527): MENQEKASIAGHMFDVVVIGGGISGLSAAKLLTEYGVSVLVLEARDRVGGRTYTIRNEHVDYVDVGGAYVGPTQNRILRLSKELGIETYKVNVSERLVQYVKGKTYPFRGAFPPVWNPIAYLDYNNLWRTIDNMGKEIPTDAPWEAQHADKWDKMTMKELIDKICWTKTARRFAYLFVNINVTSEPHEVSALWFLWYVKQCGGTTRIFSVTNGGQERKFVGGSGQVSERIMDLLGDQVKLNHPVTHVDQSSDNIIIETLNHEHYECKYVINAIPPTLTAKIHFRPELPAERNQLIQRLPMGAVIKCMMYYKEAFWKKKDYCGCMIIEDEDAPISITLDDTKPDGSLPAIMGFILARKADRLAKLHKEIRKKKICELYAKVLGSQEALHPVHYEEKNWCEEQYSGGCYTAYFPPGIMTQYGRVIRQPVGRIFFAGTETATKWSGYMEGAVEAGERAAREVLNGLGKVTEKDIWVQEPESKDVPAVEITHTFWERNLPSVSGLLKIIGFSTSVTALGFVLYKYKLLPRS
Method: (§1) The in vitro fluorometric technique was used to assess each newly generated substance's inhibitory activity against hMAO‐A and hMAO‐B. In a horseradish peroxidase coupling reaction, the oxired reagent (10‐acetyl‐3,7‐dihydroxyphenoxazine) detects H2O2, a result of the oxidative deamination of tyramine, which is utilized as an MAO substrate. The test was carried out in two steps. First, each compound's concentrations of 10^–3 and 10^–4 M were investigated. […] These parameters of this study were made as in previous studies. We purchased these two enzymes from Sigma Aldrich (M7316‐Monoamine Oxidase A human and M7441‐ […]).

hMAO‐B = target: T4, hMAO‐B (Homo sapiens, UniProt P27338); experiment: In vitro fluorometric MAO-B inhibition assay (tyramine substrate, horseradish peroxidase coupling); format: biochemical
T4 construct: purchased Sigma Aldrich M7441
T4 sequence (P27338 1-520): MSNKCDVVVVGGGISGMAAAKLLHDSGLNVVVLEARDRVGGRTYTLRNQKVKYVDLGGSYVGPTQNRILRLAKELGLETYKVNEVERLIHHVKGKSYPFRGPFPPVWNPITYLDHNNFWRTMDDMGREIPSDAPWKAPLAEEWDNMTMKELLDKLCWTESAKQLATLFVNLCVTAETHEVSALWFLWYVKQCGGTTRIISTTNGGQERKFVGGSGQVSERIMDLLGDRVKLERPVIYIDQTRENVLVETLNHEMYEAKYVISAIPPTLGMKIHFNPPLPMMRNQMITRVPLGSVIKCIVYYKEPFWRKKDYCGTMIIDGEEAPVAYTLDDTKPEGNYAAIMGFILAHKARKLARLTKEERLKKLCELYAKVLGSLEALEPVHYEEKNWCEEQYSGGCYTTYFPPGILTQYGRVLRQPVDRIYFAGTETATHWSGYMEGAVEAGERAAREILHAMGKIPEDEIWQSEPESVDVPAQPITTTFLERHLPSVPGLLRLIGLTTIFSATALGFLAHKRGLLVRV
Method: as §1

Structure (SMILES)	IC50 [1]	Ki [1]	IC50 (BChE from equine serum)	Ki (BChE from equine serum)	IC50 (hMAO‐A)	IC50 (hMAO‐B)
CCN(CC)c1ccc(/C=N/NC(=S)Nc2ccccc2C(F)(F)F)c(OS(=O)(=O)c2ccc3ccccc3c2)c1 [Compound 5h, (E)‐5‐(Diethylamino)‐2‐[(2‐{[2‐(trifluoromethyl)phenyl]carbamothioyl}hydrazineylidene)methyl]phenyl naphthalene‐2‐sulfonate]	16.8 ± 1.35 nM	14.6 ± 3.36 nM	145 ± 8.96 nM	136 ± 9.17 nM	100 ± 4.57 nM	249 ± 9.1 nM
CCN(CC)c1ccc(/C=N/NC(=S)Nc2ccc(Br)cc2)c(OS(=O)(=O)c2ccc3ccccc3c2)c1 [Compound 5b, (E)‐2‐({2‐[(4‐Bromophenyl)carbamothioyl]hydrazono}methyl)‐5‐(diethylamino)phenyl naphthalene‐2‐sulfonate]	33.8 ± 3.41 nM	26.6 ± 3.34 nM	202 ± 5.66 nM	191 ± 15.7 nM	132 ± 7.01 nM	410 ± 7.47 nM
CCN(CC)c1ccc(/C=N/NC(=S)NC)c(OS(=O)(=O)c2ccc3ccccc3c2)c1 [Compound 5m, (E)‐5‐(Diethylamino)‐2‐{[2‐(methylcarbamothioyl)hydrazono]methyl}phenyl naphthalene‐2‐sulfonate]	38.5 ± 3.21 nM	30.2 ± 5.02 nM	214 ± 7.13 nM	193 ± 11.6 nM	132 ± 4.96 nM	369 ± 11.2 nM
CCN(CC)c1ccc(/C=N/NC(=S)Nc2ccc(F)cc2)c(OS(=O)(=O)c2ccc3ccccc3c2)c1 [Compound 5l, (E)‐5‐(Diethylamino)‐2‐({2‐[(4‐fluorophenyl)carbamothioyl]hydrazono}methyl)phenyl naphthalene‐2‐sulfonate]	29.5 ± 2.68 nM	27.4 ± 3.45 nM	200 ± 6.88 nM	182 ± 9.05 nM	112 ± 2.78 nM	277 ± 6.33 nM
CCN(CC)c1ccc(/C=N/NC(=S)NCCc2ccccc2)c(OS(=O)(=O)c2ccc3ccccc3c2)c1 [Compound 5t, (E)‐5‐(Diethylamino)‐2‐{[2‐(phenethylcarbamothioyl)hydrazono]methyl}phenyl naphthalene‐2‐sulfonate]	56.2 ± 4.58 nM	48.3 ± 7.32 nM	271 ± 6.9 nM	227 ± 16.1 nM	139 ± 6.02 nM	289 ± 9.11 nM
CCN(CC)c1ccc(/C=N/NC(=S)Nc2cccc(Cl)c2)c(OS(=O)(=O)c2ccc3ccccc3c2)c1 [Compound 5e, (E)‐2‐({2‐[(3‐chlorophenyl)carbamothioyl]hydrazono}methyl)‐5‐(diethylamino)phenyl naphthalene‐2‐sulfonate]	31 ± 4.16 nM	25.4 ± 3.32 nM	208 ± 7.53 nM	195 ± 11.5 nM	117 ± 7.33 nM	> 1000 nM
